Measured values from paper PMC3022637, “The modulation of TRPM7 currents by nafamostat mesilate depends directly upon extracellular concentrations of divalent cations” (Molecular Brain, 2010).
Read-outs that look alike come from different tables or passages of the source.

Tests used:
[1] = biological target: T1, TRPM7 current in cultured mouse hippocampal neurons (Mus musculus, UniProt Q923J1); assay: Whole-cell voltage clamp of TRPM7 currents in cultured hippocampal neurons (low divalent cation-induced or compound-activated); type: cell-based
T1 construct: supports the substantial involvement of endogenous TRPM7 channels in the responses of neurons; endogenous in cells; host or cells: primary cultured hippocampal neurons from embryonic Swiss mice
T1 sequence (Q923J1 whole entry): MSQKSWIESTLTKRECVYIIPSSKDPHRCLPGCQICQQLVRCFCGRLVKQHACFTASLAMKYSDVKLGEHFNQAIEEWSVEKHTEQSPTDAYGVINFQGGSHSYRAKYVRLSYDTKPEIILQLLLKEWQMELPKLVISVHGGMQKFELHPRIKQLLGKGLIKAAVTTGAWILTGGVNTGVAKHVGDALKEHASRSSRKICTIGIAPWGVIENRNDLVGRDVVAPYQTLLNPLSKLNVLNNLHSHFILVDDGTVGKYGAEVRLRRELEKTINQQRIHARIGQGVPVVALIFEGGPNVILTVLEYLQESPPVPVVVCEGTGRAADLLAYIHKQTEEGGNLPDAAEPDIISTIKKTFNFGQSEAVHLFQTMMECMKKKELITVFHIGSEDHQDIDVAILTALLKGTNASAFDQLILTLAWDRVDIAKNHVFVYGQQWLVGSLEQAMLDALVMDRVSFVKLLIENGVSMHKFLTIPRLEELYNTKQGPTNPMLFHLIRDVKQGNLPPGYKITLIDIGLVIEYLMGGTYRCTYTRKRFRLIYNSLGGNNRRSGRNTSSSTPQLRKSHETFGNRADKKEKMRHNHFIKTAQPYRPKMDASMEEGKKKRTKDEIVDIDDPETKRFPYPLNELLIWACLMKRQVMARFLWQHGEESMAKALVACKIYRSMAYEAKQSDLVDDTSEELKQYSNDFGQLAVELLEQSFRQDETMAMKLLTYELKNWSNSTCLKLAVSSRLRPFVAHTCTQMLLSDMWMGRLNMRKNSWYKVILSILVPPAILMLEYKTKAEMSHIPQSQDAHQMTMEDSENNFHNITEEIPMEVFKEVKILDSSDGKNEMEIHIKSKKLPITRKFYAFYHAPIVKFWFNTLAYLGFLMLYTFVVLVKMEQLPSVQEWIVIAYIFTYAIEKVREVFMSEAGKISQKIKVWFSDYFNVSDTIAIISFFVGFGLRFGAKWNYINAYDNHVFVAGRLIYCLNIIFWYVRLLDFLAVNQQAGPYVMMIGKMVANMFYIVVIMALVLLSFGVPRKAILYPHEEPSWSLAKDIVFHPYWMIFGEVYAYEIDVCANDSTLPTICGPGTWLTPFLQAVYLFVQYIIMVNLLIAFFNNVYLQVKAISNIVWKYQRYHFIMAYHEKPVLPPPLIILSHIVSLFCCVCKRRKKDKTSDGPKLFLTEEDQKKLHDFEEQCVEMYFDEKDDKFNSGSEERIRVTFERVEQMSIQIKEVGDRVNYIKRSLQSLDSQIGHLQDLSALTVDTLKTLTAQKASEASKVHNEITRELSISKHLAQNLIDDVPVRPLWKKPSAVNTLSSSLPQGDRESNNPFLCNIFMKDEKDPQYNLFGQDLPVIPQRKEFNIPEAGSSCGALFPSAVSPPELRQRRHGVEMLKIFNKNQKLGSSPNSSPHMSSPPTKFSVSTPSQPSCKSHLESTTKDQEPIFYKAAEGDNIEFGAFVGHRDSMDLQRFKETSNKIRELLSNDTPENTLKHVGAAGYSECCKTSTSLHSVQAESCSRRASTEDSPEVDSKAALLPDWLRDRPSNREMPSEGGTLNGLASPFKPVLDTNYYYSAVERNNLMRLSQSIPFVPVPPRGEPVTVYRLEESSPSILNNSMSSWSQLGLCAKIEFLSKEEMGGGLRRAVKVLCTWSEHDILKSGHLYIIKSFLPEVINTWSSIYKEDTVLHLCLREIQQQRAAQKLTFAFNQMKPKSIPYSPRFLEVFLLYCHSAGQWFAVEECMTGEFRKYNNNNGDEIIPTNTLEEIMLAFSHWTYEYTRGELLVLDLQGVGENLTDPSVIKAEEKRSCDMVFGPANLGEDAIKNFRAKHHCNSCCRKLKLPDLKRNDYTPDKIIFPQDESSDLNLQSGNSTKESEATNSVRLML

human TRPM7 channels = tested on: human TRPM7 channels; set-up: method as in PMID 18719395; conditions: pH 7.4 to 4.0; cited from earlier work
[2] = biological target: T2, wild-type (WT) human TRPM7 (Homo sapiens, UniProt Q96QT4); assay: Whole-cell recording of recombinant TRPM7 currents in transfected HEK293T cells (voltage ramps); type: cell-based
T2 construct: expressed in transfected cells; host or cells: HEK293T
T2 sequence (Q96QT4 whole entry): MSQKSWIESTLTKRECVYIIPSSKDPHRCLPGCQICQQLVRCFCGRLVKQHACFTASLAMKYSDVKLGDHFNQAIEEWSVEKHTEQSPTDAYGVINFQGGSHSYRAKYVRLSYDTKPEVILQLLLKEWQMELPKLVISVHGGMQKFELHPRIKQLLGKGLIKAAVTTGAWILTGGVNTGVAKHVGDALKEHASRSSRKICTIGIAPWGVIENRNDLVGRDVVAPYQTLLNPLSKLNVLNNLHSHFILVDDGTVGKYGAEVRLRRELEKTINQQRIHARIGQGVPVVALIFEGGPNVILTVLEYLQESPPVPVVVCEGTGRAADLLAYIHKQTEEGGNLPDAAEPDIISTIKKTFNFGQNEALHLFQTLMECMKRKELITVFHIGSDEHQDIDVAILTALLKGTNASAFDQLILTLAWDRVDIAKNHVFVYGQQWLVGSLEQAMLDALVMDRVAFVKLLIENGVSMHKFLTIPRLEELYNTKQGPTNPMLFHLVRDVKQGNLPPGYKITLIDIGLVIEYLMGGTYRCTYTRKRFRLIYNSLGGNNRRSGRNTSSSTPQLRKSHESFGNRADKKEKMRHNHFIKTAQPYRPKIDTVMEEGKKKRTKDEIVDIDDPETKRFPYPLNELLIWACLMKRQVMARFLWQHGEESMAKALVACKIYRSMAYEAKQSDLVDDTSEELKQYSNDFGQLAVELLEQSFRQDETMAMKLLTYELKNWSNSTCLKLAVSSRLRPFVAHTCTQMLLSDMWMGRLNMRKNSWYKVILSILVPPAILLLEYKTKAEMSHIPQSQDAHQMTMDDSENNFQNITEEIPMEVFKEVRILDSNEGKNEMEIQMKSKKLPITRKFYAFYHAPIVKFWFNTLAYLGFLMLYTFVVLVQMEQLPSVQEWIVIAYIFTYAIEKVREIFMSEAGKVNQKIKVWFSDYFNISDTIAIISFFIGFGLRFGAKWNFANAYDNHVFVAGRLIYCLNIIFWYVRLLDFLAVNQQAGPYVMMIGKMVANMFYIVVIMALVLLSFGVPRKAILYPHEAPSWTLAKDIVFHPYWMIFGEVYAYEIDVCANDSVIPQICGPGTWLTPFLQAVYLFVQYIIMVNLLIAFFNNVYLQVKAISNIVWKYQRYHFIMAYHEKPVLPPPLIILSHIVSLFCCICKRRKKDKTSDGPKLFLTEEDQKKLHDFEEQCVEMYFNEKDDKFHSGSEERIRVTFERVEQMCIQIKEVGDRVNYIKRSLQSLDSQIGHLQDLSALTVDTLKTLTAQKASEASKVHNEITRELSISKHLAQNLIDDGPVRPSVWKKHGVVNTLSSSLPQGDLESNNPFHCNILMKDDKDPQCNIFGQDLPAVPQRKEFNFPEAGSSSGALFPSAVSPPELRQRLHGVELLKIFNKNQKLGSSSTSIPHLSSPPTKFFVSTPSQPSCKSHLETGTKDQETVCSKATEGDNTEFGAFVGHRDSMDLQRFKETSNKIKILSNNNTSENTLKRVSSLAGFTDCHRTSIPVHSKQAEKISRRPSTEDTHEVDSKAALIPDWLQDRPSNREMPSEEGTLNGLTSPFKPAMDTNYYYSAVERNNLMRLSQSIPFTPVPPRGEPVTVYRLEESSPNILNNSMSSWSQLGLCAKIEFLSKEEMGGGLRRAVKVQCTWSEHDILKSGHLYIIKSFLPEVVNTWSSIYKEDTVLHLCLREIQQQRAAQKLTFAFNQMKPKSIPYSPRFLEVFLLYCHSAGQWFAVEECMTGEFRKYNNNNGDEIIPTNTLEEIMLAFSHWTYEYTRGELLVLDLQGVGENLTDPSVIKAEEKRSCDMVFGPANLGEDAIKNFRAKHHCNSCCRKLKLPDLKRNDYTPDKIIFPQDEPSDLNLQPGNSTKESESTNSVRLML
Method: Electrophysiological recordings were made from HEK293T cells transfected wild-type (WT) human TRPM7 or the E1052A, and the D1054A mutant channels, as previously described.
Whole-cell and patch recordings were performed on HEK293T cells at room temperature (22-25°C) with Axopatch 200B (Molecular Devices, Sunnyvale, CA) amplifier. For whole-cell recordings, the Cs^+-based bath solution contained (in mM) 100 Cs-aspartate, 1 EGTA, 10 N-2-Hydroxyethylpiperazine-N'-thanesulfonic acid (HEPES) and 120 mannitol (pH adjusted to 7.4 with CsOH). When required, 1 mM ethyleneglycol-bis-(α-amino-ethyl ether) N,N'-tetra-acetic acid (EGTA) was replaced with added CaCl2 and MgCl2 as indictated in results section. The pipette solution contained 100 Cs-aspartate, 1 EGTA, 10 HEPES, 0.5 CsCl, and 100 mannitol (pH 7.4). The inhibition ratio (%) was calculated according to the following equation: inhibition ratio (%) = 100 × [1 - (INM)/(ICtl)], where ICtl is whole-cell current observed before application of NM at +100 and -100 mV. INM represents the current observed during application of NM.
Data were analyzed with Clampfit 9.2. (Molecular Devices, Sunnyvale, CA), Excel 2002 (Microsoft Corporation, Redmond, WA), Origin 5.0 (OriginLab Corp., Northhampton, MA) and finalized illustrated using CorelDraw X3 (Corel Corporation; Ontario, Canada). Currents were normalized to the amplitude of control responses. NM or DAPI inhibitory concentration-response plots were fitted to the logistic equation: I = (Amax-A0)/[1+(X/IC50)^n]+A0, where I is the normalized current amplitude, X is the antagonist concentration; n is Hill coefficient; IC50 is the concentration of antagonist that generate 50% of maximal inhibition. Results are reported for the text, the figures and amplitude histograms, as mean ± S.E.M. They represent the mean of n individual measurements on different cells. Statistical analysis was done with the unpaired or paired t-test, when appropriate. Chemicals are re-drawn based on the structures downloaded from Pubchem. NM was purchased from BioMol (Plymouth Meeting, PA) and its metabolites p-GBA and AN were from TCI and gabexate, DAPI, HSB from Sigma (St. Louis, MO).

[3] = tested on: T3, human TRPM7 E1052A mutant; assay: Whole-cell recording of E1052A mutant TRPM7 currents in HEK293T cells; type: cell-based; conditions: 1 mM NM; 0.1 mM Ca2+ and 0.1 mM Mg2+; inward current at -100 mV
T3 construct: expressed in transfected cells; host or cells: HEK293T
Method: Electrophysiological recordings were made from HEK293T cells transfected wild-type (WT) human TRPM7 or the […], and the […] mutant channels, as previously described. Whole-cell and patch recordings were performed on HEK293T cells at room temperature (22-25°C) with Axopatch 200B (Molecular Devices, Sunnyvale, CA) amplifier. […] When required, 1 mM ethyleneglycol-bis-(α-amino-ethyl ether) N,N'-tetra-acetic acid (EGTA) was replaced with added CaCl2 and MgCl2 as indictated in results section. […] INM represents the current observed during application of NM.

[4] = tested on: intracellular Ca2+ in cultured hippocampal neurons; assay: Fura-2 calcium imaging in cultured hippocampal neurons; type: cell-based, mouse
Method: (§1) Time-pregnant Swiss mice (embryonic day 16) were anesthetized with halothane and were decapitated. Brains of fetuses were removed rapidly and placed in Ca^2+ and Mg^2+ free ice cold PBS. Whole hippocampus or cerebral cortices were dissected under a dissection microscope and incubated with 0.05% trypsin-EDTA for 10 min at 37°C, then triturated with fire-polished glass pipettes. Cells were counted and plated in poly-L-ornithine-coated culture dishes at a density of 1 × 10^6 cells per 35 mm diameter dish. Neurons were cultured with neurobasal medium supplemented with B27 and maintained at 37°C in a humidified 5% CO2 atmosphere incubator. Cultures were fed twice a week. Neurons at 14-21 day culture stages were used for electrophysiological recordings and calcium image.
Fura-2 fluorescent Ca^2+ imaging was performed as described previously. Cortical or hippocampal neurons grown on 25 mm round glass coverslips were washed three times with ECF and incubated with 5 μM Fura-2-AM for ~ 40 min at room temperature. Neurons were then washed three times and incubated in normal ECF for 30 min. Coverslips with Fura-2-loaded neurons were transferred to a perfusion chamber on the stage of an inverted microscope (Nikon TE300, Tokyo, Japan). Cells were illuminated using a xenon lamp (75W) and observed with a 40 × UV fluor oil-immersion objective lens. Video images were obtained using a cooled CCD camera (Sensys KAF 1401, Photometrics, Tucson, AZ) mounted on an inverted microscope (Nikon TE300, Tokyo, Japan). Digitized images were acquired, stored, and analyzed in a PC controlled by Axon Imaging Workbench software (AIW2.1, Molecular Devices, Sunnyvale, CA). The shutter and filter wheel (Lambda 10-2, Sutter Instrument, Novato, CA) were also controlled by AIW to allow timed illumination of cells at 340 and 380 nm excitation wavelengths. Fura-2 fluorescence was detected at an emission wavelength of 510 nm. Ratio images of 340/380 nm were analyzed by averaging pixel ratio values in circumscribed regions of cells in the field of view. […]

[5] = tested on: intracellular Ca2+ in cultured mouse cortical neurons; assay: Fura-2 calcium imaging in cultured cortical neurons; type: cell-based; conditions: NM 50 μM; without NM 1.17 ± 0.03
Method: as §1
Fura-2 fluorescent Ca^2+ imaging was performed as described previously. Cortical or hippocampal neurons grown on 25 mm round glass coverslips were washed three times with ECF and incubated with 5 μM Fura-2-AM for ~ 40 min at room temperature. […] Digitized images were acquired, stored, and analyzed in a PC controlled by Axon Imaging Workbench software (AIW2.1, Molecular Devices, Sunnyvale, CA). […] Fura-2 fluorescence was detected at an emission wavelength of 510 nm. Ratio images of 340/380 nm were analyzed by averaging pixel ratio values in circumscribed regions of cells in the field of view. […]

[6] = tested on: cultured hippocampal neurons; assay: On-cell loose-patch recording of low Ca2+-induced action potential firing; type: cell-based, mouse; conditions: NM 200 μM; induced by 0.5 mM Ca2+ and 0.5 mM Mg2+; control 8.5 ± 2.7 Hz
[7] = tested on: CA1 neurons in the hippocampal slice; assay: Low divalent-induced inward current in CA1 neurons in the hippocampal slice; type: cell-based; conditions: co-perfusion
Excerpt: To verify this we tested several compounds with benzene rings on their outer edge such as DAPI and HSB. Both DAPI and HSB are di-cations but with amidine groups at both termini. […] We also examined the actions of NM on CA1 neurons in the hippocampal slice in order to confirm whether or not NM was capable of inhibiting and activating this current in CA1 neurons in situ. The diffusion barriers presented in the slice preparation preclude very rapid changes in divalent cation concentrations but prolonged solution changes can be used to activate TRPM7 currents in this preparation. Lowering concentrations of divalent cations induced a slowly activating inward current that was attenuated by the co-perfusion of NM (not shown).

[8] = 200 μM, current evoked by 0.1 mM Ca2+ and 0.1 mM Mg2+
[9] = 200 μM, 0.1 mM Ca2+ and 0.1 mM Mg2+

Q: With CC(=O)N[C@@H](CC(C)C)C(=O)N[C@@H](CC(C)C)C(=O)N[C@H](C=O)CCCNC(=N)N [Leupeptin, leupeptin] as the compound, how does the “potentiation of TRPM7 current, pre-exposed” value ([1]; 200 μM) read?
A: no inhibitory or potentiating effects

Q: And the “block of TRPM7 current, co-applied” value [1, 8]?
A: no inhibitory or potentiating effects

Q: For [Mg+2] [Mg^2+], which “reduction of IC50 for monovalent cation block on decreasing pH from 7.4 to 4.0” value (human TRPM7 channels) is on record?
A: 510 fold

Q: For N=C(N)c1ccc2cc(OC(=O)c3ccc(N=C(N)N)cc3)ccc2c1 [NM, 6-amidino-2-naphthyl-4-guanidinobenzobate dimethanesulfonate], which “effect on blocking potency of extracellular divalent cations” value ([2]; 500 μM NM) is on record?
A: substantially reduced the blocking potency

Q: What about the “increase of inhibitory potency in divalent-free solution versus 0.1 mM divalents” value ([2]; +100 mV) of the same compound?
A: about 5 fold

Q: What about the Hill coefficient ([2]; +100 mV, 0.1 mM Ca2+ and 0.1 mM Mg2+) of the same compound?
A: 1.4

Q: And the IC50 ([2]; +100 mV, 0.1 mM Ca2+ and 0.1 mM Mg2+, read-out: IC50, inhibition of outward TRPM7 current)?
A: 617 µM

Q: What about the Hill coefficient ([2]; +100 mV, divalent free solution) of the same compound?
A: 1.2

Q: What about the IC50 ([2]; +100 mV, divalent free solution, read-out: IC50, inhibition of TRPM7 current) of the same compound?
A: 121 µM

Q: And the “increase of inhibitory potency in divalent-free solution versus 0.1 mM divalents” value ([2]; -100 mV)?
A: 30 fold

Q: What about the Hill coefficient ([2]; -100 mV, 0.1 mM Ca2+ and 0.1 mM Mg2+) of the same compound?
A: 1.3

Q: What about the IC50 ([2]; -100 mV, 0.1 mM Ca2+ and 0.1 mM Mg2+, read-out: IC50, inhibition of inward TRPM7 current) of the same compound?
A: 514 µM

Q: What about the Hill coefficient ([2]; -100 mV, divalent free solution) of the same compound?
A: 1.3

Q: What about the IC50 ([2]; -100 mV, divalent free solution, read-out: IC50, inhibition of TRPM7 current) of the same compound?
A: 15 µM

Q: And the “potentiation of TRPM7 currents” value ([2]; TRPM7-transfected HEK293T cells, ramp-clamp, inward currents at -100 mV)?
A: potentiates

Q: And the “inhibition of TRPM7 currents” value ([2]; in the presence of 1 mM Ca2+ and Mg2+)?
A: failed to inhibit

Q: And the “inhibition by NM of currents, relative to WT” value [3]?
A: strongly depressed

Q: And the “direct activation of TRPM7 current at physiological divalent cations” value ([1]; 25 μM, 2 mM Ca2+ and 1 mM Mg2+)?
A: little effects

Q: What about the “amplitude of NM-induced current” value ([1]; 0.1 mM Ca2+ (with 0.1 Mg2+)) of the same compound?
A: 1018 ± 120 pA

Q: And the “potentiation of evoked TRPM7 current, pre-exposed” value ([1]; 200 μM applied before lowering divalent cations, current evoked by 0.1 mM Ca2+ and 0.1 mM Mg2+)?
A: about 3.6 ± 0.4 fold

Q: And the “offset time constant of inhibition” value [1, 9]?
A: 1.07 ± 0.20 s

Q: What about the “onset time constant of inhibition” value [1, 9] of the same compound?
A: 0.29 ± 0.04 s

Q: And the “direct activation of TRPM7 current at physiological divalent cations” value ([1]; 200 μM, 2 mM Ca2+ and 1 mM Mg2+)?
A: induced small inward currents

Q: And the “current amplitude upon NM washout” value ([1]; 200 μM, 2 mM Ca2+ and 1 mM Mg2+, brief washout)?
A: 379 ± 86 pA

Q: What about the “amplitude of NM-induced current” value ([1]; 200 μM, 2 mM Ca2+ and 1 mM Mg2+, during application) of the same compound?
A: 243 ± 66 pA

Q: What about the “reversal potential of NM-induced current” value ([1]; 200 μM, 2 mM Ca2+ and 1 mM Mg2+, voltage ramps) of the same compound?
A: 0 mV

Q: What about the “block of TRPM7 current, co-applied” value [1, 8] of the same compound?
A: completely blocks

Q: And the “block of TRPM7 current, co-applied” value ([1]; 200 μM, current evoked by zero divalent cations)?
A: reversibly blocked

Q: What about the “amplitude of NM-induced current” value ([1]; 2 mM Ca2+ (with 1 mM Mg2+)) of the same compound?
A: 291 ± 52 pA

Q: And the “amplitude of NM-induced current” value ([1]; 10 mM Ca2+ (with 1 mM Mg2+))?
A: 147 ± 20 pA

Q: And the Hill coefficient ([1]; current evoked by 0.1 mM Ca2+ and 0.1 mM Mg2+)?
A: 1.4

Q: What about the IC50 ([1]; current evoked by 0.1 mM Ca2+ and 0.1 mM Mg2+, -60 mV, acutely applied, read-out: IC50, block of TRPM7 current) of the same compound?
A: 27 µM

Q: What about the “NM-induced change of intracellular concentration of Ca2+” value ([4]; 200 μM, 2 mM Ca2+, no Mg2+, MK801, CNQX, nimodipine present) of the same compound?
A: induced an increase

Q: What about the “net increase of 340/380 ratio on lowering extracellular Ca2+” value ([4]; NM 50 μM, Ca2+ from 2.0 mM to 0.5 mM, no added Mg2+, without NM 2.64 ± 0.48) of the same compound?
A: 0.61 ± 0.32

Q: What about the “net increase of 340/380 ratio induced by KCl” value ([4]; NM 50 μM, KCl 50 mM, 1.67 in the absence of NM) of the same compound?
A: 1.84

Q: What about the “net increase of 340/380 ratio on lowering extracellular Ca2+” value [5] of the same compound?
A: 0.20 ± 0.08

Q: And the “firing frequency of action potentials” value [6]?
A: 6.8 ± 2.9 Hz

Q: What about the “effect on slowly activating inward current induced by lowering divalent cations” value [7] of the same compound?
A: attenuated

Q: Which “potentiation of TRPM7 current, pre-exposed” value ([1]; 200 μM) does the source give for Cn1cc(NC(=O)c2cc(NC(=O)CN=C(N)N)cn2C)cc1C(=O)NCCC(=N)N [netropsin] here?
A: nor potentiated

Q: What about the “block of TRPM7 current, co-applied” value [1, 8] of the same compound?
A: neither blocked

Q: Which “block of TRPM7 current, co-applied” value ([1]; 1 mM (p-GBA up to 1 mM), low divalent-evoked current) does the source give for N=C(N)Nc1ccc(C(=O)O)cc1 [p-GBA, p-guanidinobenzoic acid] here?
A: neither inhibited

Q: And the “I compound / I control, co-applied” value ([1]; 1 mM, normalized current)?
A: 94 ± 3%

Q: And the “I compound / I control, pre-exposed” value ([1]; 1 mM, normalized current)?
A: 96 ± 1%

Q: And the “potentiation of TRPM7 current, pre-exposed” value ([1]; up to 1 mM)?
A: nor potentiated

Q: With N=C(N)NCCCCCCCCCCNC(=N)N [synthalin] as the compound, how does the “potentiation of TRPM7 current, pre-exposed” value ([1]; 200 μM) read?
A: did not block or potentiate

Q: What about the “block of TRPM7 current, co-applied” value [1, 8] of the same compound?
A: did not block or potentiate
